For one assay, the system named is NCI-H226 cells. Briefly: Viability assay in NCI-H226 (Yap-dependent) cells, CyQuant. It is filed as cell-based, human. Particulars: class symbols. The gist of the method: (§1)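 Seeded cells were dosed 24 h later in duplicate (10-point, 1:3 dilutions, top 30 μM final, 0.3% DMSO) and incubated 96 h at 37 °C. Viability was read with CyQUANT DNA dye after 1 h, fluorescence bottom read. NCI-H226 in RPMI 1640 medium; SW620 YAP/TAZ CRISPR knockout in DMEM/F-12 medium.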

Another assay relates to YAP-TEAD interaction. Briefly: SK-HEP-1 reporter assay (8xTEAD responsive elements driving NanoLuc luciferase). In kind it is cell-based. Put shortly:
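SK-HEP-1 cells stably carrying 8×TEAD-driven NanoLuc treated in duplicate, 10-point dose from 30 μM final, 0.3% DMSO, 24 h at 37° C. Luminescence after NanoGlo lysis/substrate addition; IC50 calculated from dose response.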
On the technique in general: In a reporter assay the amount or activity of a reporter protein is the signal.

Another assay has as its system SW620 Yap KO cells. In words: Viability assay in SW620 Yap KO (Yap independent) cells, CyQuant. In kind it is cell-based. Particulars: Homo sapiens, SW-620, 96 h. Put shortly: as §1
Where [1] appears, read: Homo sapiens, SK-HEP1, SK-HEP-1 reporter assay, class symbols.
Where [2] appears, read: n.d. = value not detectable below threshold given in parentheses, ND = not determinable within the entire range.
Setting [3] is: Homo sapiens, SK-HEP1, SK-HEP-1 reporter assay, n.d. = value not detectable below threshold given in parentheses, ND = not determinable within the entire range.

The record followed here is patent US20240270748A1 (Merck Patent GmbH, priority 2021, published 2024).

The structures appear in SMILES notation.

The term IC50 denotes the concentration that gives 50% inhibition. For `Cc1snc2c1c1cc(C(=O)N[C@H](CO)C(C)C)ccc1n2-c1ccc(C(F)(F)F)cc1` [Example C88, N-[(2S)-1-hydroxy-3-methylbutan-2-yl]-3-methyl-8-[4-(trifluoromethyl)phenyl]-8H-[1,2]thiazolo[3,4-b]indole-5-carboxamide], the IC50 with NCI-H226 cells (Homo sapiens, NCI-H226, 96 h) was 100 to 1000 nM; with YAP-TEAD interaction (setting [1]), 10 to 100 nM; in the assay on SW620 Yap KO cells (setting [2]) it was greater than 3200 nM.
As to `Cc1snc2c1c1cc(C(=O)NC[C@@H](C)O)ccc1n2-c1ccc(C(F)(F)F)cc1` [Example C90, N-[(2R)-2-hydroxypropyl]-3-methyl-8-[4-(trifluoromethyl)phenyl]-8H-[1,2]thiazolo [3,4-b]indole-5-carboxamide], the IC50 with NCI-H226 cells (Homo sapiens, NCI-H226, 96 h) is 1 to 100 nM; in the assay on YAP-TEAD interaction (setting [1]), 10 to 100 nM; in the assay with SW620 Yap KO cells (setting [2]), greater than 3200 nM.
Turning to `Cc1snc2c1c1cc(C(=O)N[C@@H](CO)C3CCC3)ccc1n2-c1ccc(C(F)(F)F)cc1` [Example C91, N-[(1R)-1-cyclobutyl-2-hydroxyethyl]-3-methyl-8-[4-(trifluoromethyl)phenyl]-8H-[1,2]thiazolo[3,4-b]indole-5-carboxamide], the IC50 with NCI-H226 cells (Homo sapiens, NCI-H226, 96 h) is 1 to 100 nM; with YAP-TEAD interaction (setting [1]), 10 to 100 nM; in the assay on SW620 Yap KO cells (setting [2]), greater than 3200 nM.
As for `Cc1snc2c1c1cc(C(=O)NC[C@H](C)O)ccc1n2-c1ccc(C(F)(F)F)cc1` [Example C94, N-[(2S)-2-hydroxypropyl]-3-methyl-8-[4-(trifluoromethyl)phenyl]-8H-[1,2]thiazolo[3,4-b]indole-5-carboxamide], the half-maximal inhibitory concentration (IC50) is 1 to 100 nM in the assay on NCI-H226 cells (Homo sapiens, NCI-H226, 96 h); 10 to 100 nM with YAP-TEAD interaction (setting [1]); greater than 30000 nM with SW620 Yap KO cells (setting [2]).
For the compound `Cc1c2c3cc(C(=O)O)ccc3n(-c3ccc(C(F)(F)F)cc3)c2nn1C` [Example C95, 2,3-dimethyl-8-[4-(trifluoromethyl)phenyl]-2H,8H-pyrazolo[3,4-b]indole-5-carboxylic acid], the IC50 in the assay with NCI-H226 cells (Homo sapiens, NCI-H226, 96 h) is 1 to 100 nM; with YAP-TEAD interaction (setting [1]), 10 to 100 nM; in the assay on SW620 Yap KO cells (setting [2]) it was greater than 30000 nM.
Regarding `CNC(=O)c1ccc2c(c1)c1c(C)n(C)nc1n2-c1ccc(C(F)(F)F)cc1` [Example C96, N,2,3-trimethyl-8-[4-(trifluoromethyl)phenyl]-2H,8H-pyrazolo[3,4-b]indole-5-carboxamide], the IC50 was 1 to 100 nM in the assay on NCI-H226 cells (Homo sapiens, NCI-H226, 96 h); 10 to 100 nM in the assay on YAP-TEAD interaction (setting [1]); greater than 3200 nM with SW620 Yap KO cells (setting [2]).
Turning to `Cc1c2c3cc(C(=O)N[C@H](C)CO)ccc3n(-c3ccc(C(F)(F)F)cc3)c2nn1C` [Example C97, N-[(2R)-1-hydroxypropan-2-yl]-2,3-dimethyl-8-[4-(trifluoromethyl)phenyl]-2H,8H-pyrazolo[3,4-b]indole-5-carboxamide], the IC50 is 1 to 100 nM in the assay with NCI-H226 cells (Homo sapiens, NCI-H226, 96 h); 10 to 100 nM in the assay with YAP-TEAD interaction (setting [1]); greater than 30000 nM with SW620 Yap KO cells (setting [2]).
The like results for `Cc1c2c3cc(C(=O)NCc4ccncc4)ccc3n(-c3ccc(C(F)(F)F)cc3)c2nn1C` [Example C98, 2,3-dimethyl-N-[(pyridin-4-yl)methyl]-8-[4-(trifluoromethyl)phenyl]-2H,8H-pyrazolo[3,4-b]indole-5-carboxamide] were, in that order, 1 to 100 nM, 10 to 100 nM and greater than 3200 nM.
For the compound `Cc1c2c3cc(C(=O)N[C@@H](CO)c4ccccn4)ccc3n(-c3ccc(C(F)(F)F)cc3)c2nn1C` [Example C99, N-[(1R)-2-hydroxy-1-(pyridin-2-yl)ethyl]-2,3-dimethyl-8-[4-(trifluoromethyl)phenyl]-2H,8H-pyrazolo[3,4-b]indole-5-carboxamide], the IC50 in the assay on NCI-H226 cells (Homo sapiens, NCI-H226, 96 h) fell in the range of 1 to 100 nM; in the assay on YAP-TEAD interaction (setting [1]), 10 to 100 nM; in the assay with SW620 Yap KO cells (class symbols), 10000 to 30000 nM.
As to `C[C@H](NC(=O)c1ccc2c(c1)c1cn(C)nc1n2-c1ccc(C(F)(F)F)cc1)c1ccccn1` [Example C105, 2-methyl-N-[(1S)-1-(pyridin-2-yl)ethyl]-8-[4-(trifluoromethyl)phenyl]-2H,8H-pyrazolo[3,4-b]indole-5-carboxamide], the IC50 in the assay with NCI-H226 cells (Homo sapiens, NCI-H226, 96 h) is 1 to 100 nM; in the assay on YAP-TEAD interaction (setting [1]), 10 to 100 nM; with SW620 Yap KO cells (setting [2]), greater than 30000 nM.
Regarding `Cn1cc2c3cc(N=S(C)(C)=O)ccc3n(-c3ccc(C(F)(F)F)cc3)c2n1` [Example C106, dimethyl({2-methyl-8-[4-(trifluoromethyl)phenyl]-2H,8H-pyrazolo[3,4-b]indol-5-yl}imino)-\6-sulfanone], the IC50 in the assay with NCI-H226 cells (Homo sapiens, NCI-H226, 96 h) is 100 to 1000 nM; in the assay on YAP-TEAD interaction (setting [1]) it was 10 to 100 nM; in the assay on SW620 Yap KO cells (setting [2]) it was greater than 30000 nM.
With `Cn1cc2c3nc(C(=O)N=S(C)(C)=O)ccc3n(-c3ccc(C(F)(F)F)cc3)c2n1` [Example C108, N-[dimethyl(oxo)-λ^6-sulfanylidene]-4-methyl-7-[4-(trifluoromethyl)phenyl]-4,5,7,12-tetraazatricyclo [6.4.0.0^∧{^2,6}]dodeca-1(8),2,5,9,11-pentaene-11-carboxamide], the IC50 in the assay with NCI-H226 cells (Homo sapiens, NCI-H226, 96 h) is 100 to 1000 nM; in the assay with YAP-TEAD interaction (setting [3]), greater than 30000 nM; in the assay with SW620 Yap KO cells (setting [2]), greater than 30000 nM.
For `Cn1cc2c3cc(C(=O)O)cnc3n(-c3ccc(C(F)(F)F)cc3)c2n1` [Example C110, 4-methyl-7-[4-(trifluoromethyl)phenyl]-4,5,7,9-tetraazatri-cyclo[6.4.0.0^2,6]dodeca-1(8),2,5,9,11-pentaene-11-carboxylic acid], the IC50 in the assay with NCI-H226 cells (96 h) was 100 to 1000 nM; in the assay with YAP-TEAD interaction (SK-HEP-1 reporter assay, class symbols), 10 to 100 nM; in the assay on SW620 Yap KO cells (setting [2]), greater than 30000 nM.
Regarding `Cn1cc2c3nc(C(=O)N=S(C)(=O)CCCO)ccc3n(-c3ccc(C(F)(F)F)cc3)c2n1` (stereo not drawn) [Example C117, N-[(3-hydroxypropyl)(methyl)oxo- \6-sulfanylidene]-4-methyl-7-[4-(trifluoromethyl)phenyl]-4,5,7,12-tetraazatricyclo[6.4.0.0^2,6∧{2,6}]dodeca-1(8),2,5,9,11-pentaene-11-carboxamide], the IC50 is 100 to 1000 nM in the assay on NCI-H226 cells (Homo sapiens, NCI-H226, 96 h); greater than 1000 nM in the assay with YAP-TEAD interaction (setting [3]); greater than 30000 nM with SW620 Yap KO cells (setting [2]).
Regarding `C[C@H](NC(=O)c1ccc2c(n1)c1cn(C)nc1n2-c1ccc(C(F)(F)F)cc1)c1ccccn1` [Example C119, 4-methyl-N-[(1S)-1-(pyridin-2-yl)ethyl]-7-[4-(trifluoromethyl)phenyl]-4,5,7,12-tetraazatricyclo[6.4.0.0^2,6]dodeca-1(8),2,5,9,11-pentaene-11-carboxamide], the IC50 is 1 to 100 nM with NCI-H226 cells (Homo sapiens, NCI-H226, 96 h); 10 to 100 nM with YAP-TEAD interaction (setting [1]); greater than 30000 nM in the assay on SW620 Yap KO cells (setting [2]).
As for `Cc1snc2c1c1cc(C(N)=O)ccc1n2-c1ccc(C(F)(F)F)cc1` [Example C120, 3-methyl-8-[4-(trifluoromethyl)phenyl]-8H-[1,2]thiazolo[3,4-b]indole-5-carboxamide], the IC50 with NCI-H226 cells (Homo sapiens, NCI-H226, 96 h) is 1 to 100 nM; in the assay on YAP-TEAD interaction (setting [1]) it was 10 to 100 nM; with SW620 Yap KO cells (setting [2]) it was greater than 30000 nM.
Take `Cc1snc2c1c1cc(C(=O)NCCn3ccnc3)ccc1n2-c1ccc(C(F)(F)F)cc1` [Example C121]: the IC50 with NCI-H226 cells (Homo sapiens, NCI-H226, 96 h) was 1 to 100 nM; in the assay on YAP-TEAD interaction (setting [1]), 10 to 100 nM; in the assay on SW620 Yap KO cells (setting [2]), greater than 30000 nM.
For the compound `C[C@@H](NC(=O)c1ccc2c(c1)c1cn(C)nc1n2-c1ccc(C(F)(F)F)cc1)c1ccncc1` [Example C122, 2-methyl-N-[(1R)-1-(pyridin-4-yl)ethyl]-8-[4-(trifluoromethyl)phenyl]-2H,8H-pyrazolo[3,4-b]indole-5-carboxamide], the concentration for half-maximal inhibition (IC50) in the assay with NCI-H226 cells (Homo sapiens, NCI-H226, 96 h) is 100 to 1000 nM; with YAP-TEAD interaction (setting [1]) it was 10 to 100 nM; in the assay with SW620 Yap KO cells (setting [2]), greater than 30000 nM.
`CNC(=O)c1ccc2c(c1)c1cn(C)nc1n2C12CC(C(F)(F)F)(C1)C2` [Example C125, N,2-dimethyl-8-[3-(trifluoromethyl)bicyclo[1.1.1]pentan-1-yl]-2H,8H-pyrazolo[3,4-b]indole-5-carboxamide]: the IC50 is 100 to 1000 nM in the assay with NCI-H226 cells (Homo sapiens, NCI-H226, 96 h); 10 to 100 nM in the assay with YAP-TEAD interaction (setting [1]); greater than 3000 nM in the assay with SW620 Yap KO cells (setting [2]).
In the case of `Cn1cc2c3cc(C(=O)O)ccc3n(-c3ccc(C(F)(F)F)cn3)c2n1` [Example C126, 2-methyl-8-[5-(trifluoromethyl)pyridin-2-yl]-2H,8H-pyrazolo[3,4-b]indole-5-carboxylic acid], the IC50 with NCI-H226 cells (Homo sapiens, NCI-H226, 96 h) was 100 to 1000 nM; in the assay with YAP-TEAD interaction (setting [1]), 10 to 100 nM; in the assay on SW620 Yap KO cells (setting [2]), greater than 3000 nM.
In the case of `Cc1ccc(-n2c3ccc(C(=O)N[C@H](C)CO)cc3c3cn(C)nc32)cc1` [Example C131, N-[(2R)-1-hydroxypropan-2-yl]-2-methyl-8-(4-methylphenyl)-2H,8H-pyrazolo[3,4-b]indole-5-carboxamide], the IC50 with NCI-H226 cells (Homo sapiens, NCI-H226, 96 h) is 100 to 1000 nM; in the assay on YAP-TEAD interaction (setting [1]), 100 to 10000 nM; with SW620 Yap KO cells (setting [2]) it was greater than 30000 nM.
Take `Cn1nc2c3cc(C(=O)NCc4ccccc4)ccc3n(-c3ccc(C(F)(F)F)cc3)c2n1` [Example C134, N-benzyl-2-methyl-4-[4-(trifluoromethyl)phenyl]-2H,4H-[1,2,3]triazolo[4,5-b]indole-7-carboxamide]: the IC50 in the assay with NCI-H226 cells (Homo sapiens, NCI-H226, 96 h) is 1 to 100 nM; with YAP-TEAD interaction (setting [1]), 10 to 100 nM; with SW620 Yap KO cells (setting [2]), greater than 30000 nM.
In the same order, the values of `CNC(=O)c1ccc2c(c1)c1cn(C)nc1n2-c1ccc(C(F)(F)F)cn1` [Example C147, N,2-dimethyl-8-[5-(trifluoromethyl)pyridin-2-yl]-2H,8H-pyrazolo[3,4-b]indole-5-carboxamide] are 1 to 100 nM, 10 to 100 nM and greater than 30000 nM.
For `C[C@H](CO)NC(=O)c1ccc2c(c1)c1cn(C)nc1n2-c1ccc(C(F)(F)F)cn1` [Example C148, N-[(2R)-1-hydroxypropan-2-yl]-2-methyl-8-[5-(trifluoromethyl)pyridin-2-yl]-2H,8H-pyrazolo[3,4-b]indole-5-carboxamide], the IC50 in the assay on NCI-H226 cells (Homo sapiens, NCI-H226, 96 h) was 1 to 100 nM; in the assay on YAP-TEAD interaction (setting [1]), 10 to 100 nM; in the assay on SW620 Yap KO cells (setting [2]), greater than 30000 nM.
